Where “and” joins values, the source holds several entries; their conditions need not be identical. Identical values can stand only once. Entries after “also recorded” stand apart in the source; their conditions may differ.
How the values were obtained:
[1] = tested on: HIV-1JR-FL EnvΔCT expressed at the surface of HOS cells; test: Cell-based ELISA (CBE), 17b readout; conditions: for Fold over BNM-III-170 - 17b binding (±0.05): MCG analogs 50 μM, BNM-III-170 5 μM, 2G12 and DMSO normalized; for 17b binding in the CBE assay (screening hit and enantiomers): high-throughput screen follow-up, sCD4 as control, result in words
Method: Detection of trimeric HIV-1 Env at the surface of HOS cells was performed by cell-based ELISA, as described in Desormeaux, “The highly conserved layer-3 component of the HIV-1 gp120 inner domain is critical for CD4-required conformational transitions,” J. Virol. 87:2549-2562; Alsahafi, “Effects of the I559P gp41 change on the conformation and function of the human immunodeficiency virus (HIV-1) membrane envelope glycoprotein trimer,” 2015, PLoS One 10:e0122111; and Veillette, “Conformational evaluation of HIV-1 trimeric envelope glycoproteins using a cell-based ELISA assay,” 2014, J. Vis. Exp., 91:51995. To enhance cell-surface expression of HIV-1 EnvRF a stop codon was introduced to replace the codon for Gly 711, truncating the cytoplasmic tail (ACT). Briefly, HOS cells were seeded in T-75 flasks (3×10^6 cells per flask) and transfected the next day with 22.5 μg of Env-expressing plasmids (wild-type and mutants S375W, S375T, H66A, A582T/L587A, etc) using the standard polyethylenimine (PEI, Polyscience Inc, PA, USA) transfection method. Twenty-four hours after transfection, cells were plated in 384-wells plates (2×10^4 cells per well). One day later, cells were washed twice with blocking buffer (10 mg/mL non-fat dry milk, 1.8 mM CaCl2), 1 mM MgCl2, 25 mM Tris, pH 7.5 and 140 mM NaCl) and then incubated for 30 minutes at room temperature with different concentrations of MCG analogs or equivalent volume of vehicle (DMSO). Cells were then incubated for an additional 1 h at room temperature with anti-HIV-1 Env monoclonal antibodies recognizing CD4-induced gp120 epitopes (17b, A32), CD4-binding site gp120 epitopes (VRC03, VRC01, F105, and b12), gp120 V3 glycans (19b, PGT126, PGT122, and 10.1074), gp120 outer domain (2G12), and gp120-gp41 interface (PGT151 and VRC34) epitopes. All ligands were diluted in blocking buffer. A horseradish peroxidase-conjugated antibody specific for the Fc region of human or mouse IgG (Pierce) was then incubated with the samples for 45 minutes at room temperature. For all conditions, cells were washed 5 times with blocking buffer and 5 times with washing buffer (1.8 mM CaCl2), 1 mM MgCl2, 25 mM Tris, pH 7.5 and 140 mM NaCl). HRP enzyme activity was determined after the addition of 20 μl per well of a 1:1 mix of Western Lightning oxidizing and luminol reagents (Perkin Elmer Life Sciences). Light emission was measured with an LB 941 TriStar luminometer (Berthold Technologies) and analysis with Graph Pad software.
The data of Table 2 is given as the fold over BNM-III-170 (5 μM) of Cell-Based ELISA with MCG Analogs (50 μM)—17b readout, 2G12 and DMSO normalized.
To identify molecules able to expose vulnerable Env epitopes, a cell-based ELISA (CBE) assay was adapted, capable of measuring conformational changes of membrane-bound trimeric Env as described in Veillette, 2014, J. Vis. Exp. doi:10.3791/51995:51995; Haim, 2011, PLoS Pathog 7:e1002101, into a high-throughput screening (HTS) platform (FIG. 10A). Briefly, the cytoplasmic-tail deleted HIV-1JR-FL Tier-2/3 Env was expressed on the surface of HOS cells in a 384-well-plate format. The cytoplasmic tail of Env was deleted to enhance Env expression at the cell surface and therefore enhance the sensitivity of the CBE assay. See, Veilette and Haim, 2009, PLoS Pathog 5:e100036. Small molecules or, as a positive control, soluble (sCD4) were added to expose the HIV-1JR-FL EnvΔCT epitope that can be recognized by the CD4i antibody 17b. See, Wyatt, 1995, J. Virol. 69:5723-5733; Rizzuto, 1998, Science 280:1949-1953.
17b binding was detected by a horseradish peroxidase-conjugated (HRP) second antibody, and HRP enzyme activity was measured by Western Lightning oxidizing and luminal reagents. 17b binding in the presence of sCD4 was set as the control (FIG. 10B, blue dots), small molecules that enhanced 17b binding above 25% of the one induced by sCD4 were retested in quadruplicate and only one molecule (UM0059920) was deemed a true positive (FIG. 10B, red dots). […]

[2] = tested on: CH58TF infected primary CD4+ T-cells; test: HIV+ patient sera/plasma recognition of CH58TF infected primary CD4+ T-cells (flow cytometry cell-surface staining); format: cell-based, HIV-1; conditions: Human immunodeficiency virus 1, T-cell, read-out: Fold Over DMSO (patient sera, n = 3)
Method: Cell-surface staining of primary CD4+ T cells from healthy HIV uninfected individuals or CEM-NKr cells is performed, as described in Prevost, “Influence of the Envelope gp120 Phe 43 Cavity on HIV-1 Sensitivity to Antibody-Dependent Cell-Mediated Cytotoxicity Responses,” 2017, J. Virol 91; Richard, “CD4 mimetics sensitize HIV-1-infected cells to ADCC,” 2015, Proc. Natl. Acad. Sci. USA, 112:E2687-2694; Richard, “Small CD4 Mimetics Prevent HIV-1 Uninfected Bystander CD4+ T Cell Killing Mediated by Antibody-dependent Cell-mediated Cytotoxicity,” 2016, EBioMedicine 3:122-134; Veillette, “The HIV-1 gp120 CD4-Bound Conformation Is Preferentially Targeted by Antibody-Dependent Cellular Cytotoxicity-Mediating Antibodies in Sera from HIV-1-Infected Individuals,” 2015, J. Virol., 89:545-551; Veillette, “Interaction with cellular CD4 exposes HIV-1 envelope epitopes targeted by antibody-dependent cell-mediated cytotoxicity,” 2014, J. Virol., 88:2633-2644; Richard, “Uninfected Bystander Cells Impact the Measurement of HIV-Specific Antibody-Dependent Cellular Cytotoxicity Responses,” 2018, MBio. 9(2): e00358-18; Richard, “BST-2 Expression Modulates Small CD4-Mimetic Sensitization of HIV-1-Infected Cells to Antibody-Dependent Cellular Cytotoxicity,” 2017, J. Virol. 91(11):e00219-17. Binding of HIV-1 infected cells by HIV+ sera (1:1000 dilution) or anti-Env Abs (such as 17b) is performed […] in vitro infection at 37° C. in presence of different concentrations of the MCG analogs or with equivalent volume of vehicle (DMSO). Cells infected with HIV-1 primary isolates are stained intracellularly for HIV-1 p24 using the Cytofix/Cytoperm Fixation/Permeabilization Kit (BD Biosciences, Mississauga, ON, Canada) and then fluorescent anti-p24 mAb (PE-anti-p24, clone KC57; Beckman Coulter/Immunotech, Hialeah, FL) (1:100 final concentration). The percentage of infected cells (p24^+ or GFP+ cells) is determined by gating the living cell population based on the viability dye staining. Samples are analyzed on an LSRII cytometer (BD Biosciences, Mississauga, ON, Canada) and data analysis is performed using FlowJo vX0.7 (Tree Star, Ashland, OR, USA).
HIV+ Patient Sera (n=3) Recognition of CH58TF Infected Primary CD4+ T-Cells
Staining with patient sera and 50 μM of compounds given as a fold change over DMSO (vehicle).
Briefly, Primary CD4 T cells isolated from PBMC were infected with HIV-1CH58TF for 48 hours. For cell surface staining, 5 μg/ml 17b (FIG. 15A) or 1:1000 diluted HIV+ plasma (n=15) (FIG. 15B) were used in the presence of the different MCG analogs (50 μM), (+)-BNM-III-170 or with an equivalent volume of vehicle (DMSO). An Alexa Fluor 647-conjugated anti-human IgG secondary Ab was then used for fluorescent labeling. For ADCC (FIG. 15C), infected cells were used as target cells in a FACS-based ADCC assay that measures the killing of infected (p24+ cells). See, Madani, 2016, J. Virol., 90:5031-5046. The assay determines susceptibility to ADCC mediated by a 1/1,000 dilution of plasma from 15 HIV-1-infected individuals in the presence of the different MCG analogs (50 μM), (+)-BNM-III-170 (50 μM) or with an equivalent volume of vehicle (DMSO). Correlation between cell-surface staining with HIV+ plasma and ADCC was calculated using the Spearman rank correlation (FIG. 15D).

Compound | Fold over BNM-III-170 - 17b binding (±0.05) [1] | fold induction at 50 µM [2] | 17b binding in the CBE assay (screening hit and enantiomers) [1]
CCOC(=O)N1CCC[C@H](C(=O)Nc2ccc(C(F)(F)F)c(F)c2)C1 [(S)-MCG-IV-050-A02] | 0.49 fold |  | 
NCCNC(=O)N1C[C@H](N)C[C@H](C(=O)Nc2ccc(Cl)c(F)c2)C1 [(3R,5S)-MCG-IV-273] | 0.06 fold |  | 
CCN(C)C(=O)N1CCC[C@H](C(=O)Nc2ccc(Cl)c(F)c2)C1 [(S)-MCG-IV-031-A04] | 0.54 fold |  | 
CCS(=O)(=O)N1CCCC(C(=O)Nc2ccc(Cl)c(F)c2)C1 (centres unmarked) [MCG-III-157-B02] | 0.68 fold | 2.62 | 
CCCNC(=N)N1CCC[C@H](C(=O)Nc2ccc(Cl)c(F)c2)C1 [(S)-MCG-IV-053-A05] | 0.85 fold |  | 
CC(C)CNC(=N)N1CCC[C@H](C(=O)Nc2ccc(Cl)c(F)c2)C1 [(S)-MCG-IV-053-A06] | 0.60 fold |  | 
CCCNC(=O)N1C[C@H](N)C[C@H](C(=O)Nc2ccc(Cl)c(F)c2)C1 [(3R,5S)-MCG-IV-226] | 0.11 fold |  | 
NCCOC(=O)N1C[C@H](N)C[C@H](C(=O)Nc2ccc(Cl)c(F)c2)C1 [(3R,5S)-MCG-IV-272] | 0.07 fold |  | 
O=C(Nc1ccc(Cl)c(F)c1)C1CCN(S(=O)(=O)c2ccccc2)C1 (centres unmarked) [MCG-III-157-A03] | 0.33 fold | 1.57 | 
CCS(=O)(=O)N1CCC[C@H](C(=O)Nc2ccc(C(F)(F)F)c(F)c2)C1 [(S)-MCG-IV-024-B02] | 0.36 fold |  | 
CN(C)C(=O)N1CCC[C@H](C(=O)Nc2ccc(C(F)(F)F)c(F)c2)C1 [(S)-MCG-IV-063-A03] | 0.48 fold |  | 
CCNC(=O)N1CCC[C@H](C(=O)Nc2ccc(C(F)(F)F)c(F)c2)C1 [(S)-MCG-IV-063-A02] | 0.35 fold |  | 
CS(=O)(=O)N1CCC[C@@H](C(=O)Nc2ccc(Cl)cc2)C1 [(R)-MCG-II-156] | 0.08 fold |  | not
NCCOC(=O)N1CCC[C@H](C(=O)Nc2ccc(Cl)c(F)c2)C1 [(S)-MCG-IV-267] | 0.30 fold |  | 
CNC(=N)N1CCC[C@H](C(=O)Nc2ccc(Cl)c(F)c2)C1 [(S)-MCG-IV-053-A01] | 0.42 fold |  | 
CCCOC(=O)N1CCC[C@H](C(=O)Nc2ccc(Cl)c(F)c2)C1 [(S)-MCG-IV-058] | 0.51 fold |  | 
CN(C)C(=O)N1CCC[C@H](C(=O)Nc2ccc(Cl)c(F)c2)C1 [(S)-MCG-IV-031-A03] | 0.71 fold |  | 
CC(C)CNC(=O)N1CCC[C@H](C(=O)Nc2ccc(Cl)c(F)c2)C1 [(S)-MCG-IV-031-A06] | 0.42 fold |  | 
CCCNC(=O)N1CCC[C@H](C(=O)Nc2ccc(C(F)(F)F)c(F)c2)C1 [(S)-MCG-IV-063-A05] | 0.45 fold |  | 
CCNC(=O)N1CCC[C@H](C(=O)Nc2ccc(Cl)c(F)c2)C1 [(S)-MCG-IV-031-A02] | 0.37 fold |  | 
CC(C)CNC(=O)N1CCC[C@H](C(=O)Nc2ccc(C(F)(F)F)c(F)c2)C1 [(S)-MCG-IV-063-A06] | 0.36 fold |  | 
CC(C)COC(=O)N1CCC[C@H](C(=O)Nc2ccc(Cl)c(F)c2)C1 [(S)-MCG-IV-061] | 0.62 fold |  | 
CS(=O)(=O)N1CCC[C@H](C(=O)Nc2ccc(Cl)cc2)C1 [(S)-MCG-II-153] | 0.20 fold and 0.31 fold |  | enhanced 17b binding to similar levels as UM0059920; also recorded: active enantiomer
COC(=O)N1CCC[C@H](C(=O)Nc2ccc(C(F)(F)F)c(F)c2)C1 [(S)-MCG-IV-050-A01] | 0.44 fold |  | 
CNC(=O)N1CCC[C@H](C(=O)Nc2ccc(C(F)(F)F)c(F)c2)C1 [(S)-MCG-IV-063-A01] | 0.33 fold |  | 
CS(=O)(=O)N1CCC[C@H](C(=O)Nc2ccc(C(F)(F)F)c(F)c2)C1 [(S)-MCG-IV-024-A02] | 0.38 fold |  | 
NCCCNC(=O)N1C[C@H](N)C[C@H](C(=O)Nc2ccc(Cl)c(F)c2)C1 [(3R,5S)-MCG-IV-274] | 0.06 fold |  | 
NCCCNC(=O)N1CCC[C@H](C(=O)Nc2ccc(Cl)c(F)c2)C1 [(S)-MCG-IV-211] | 0.25 fold |  | 

Reference: patent US12286401B2, “Small molecules that sensitize HIV-1 infected cells to antibody dependent cellular cytotoxicity” (THE TRUSTEES OF THE UNIVERSITY OF PENNSYLVANIA, priority 2018, dated 2025)
